Data: ChEMBL document CHEMBL1201862, “PubChem BioAssay data set” (2004)
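48-hour exposure; five concentrations; linearly interpolated endpoints. GI50: concentration for 50% inhibition of growth.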 Activity calls are given as the source filed them. No stated cut-off is given here; in the data, active = GI50 up to about 1.1 µM and inactive = higher.

Legend:
Experiment in all cases: growth of human tumour cells (NCI), 48 h
[1] = test system: NCI-H460
[2] = test system: A549
[3] = test system: NCI-H226
[4] = test system: HCC 2998
[5] = test system: 786-0
[6] = test system: SK-MEL-28
[7] = test system: PC-3
[8] = test system: SF-268
[9] = test system: DU-145
[10] = test system: NCI/ADR-RES
[11] = test system: MDA-MB-435
[12] = test system: U-251
[13] = test system: RPMI-8226
[14] = test system: ACHN
[15] = test system: HCT-116
[16] = test system: M14
[17] = test system: CCRF-CEM
[18] = test system: MDA-MB-231
[19] = test system: COLO 205
[20] = test system: HL-60

| Structure (SMILES) | GI50 [1] | GI50 [2] | GI50 [3] | GI50 [4] | GI50 [5] | GI50 [6] | GI50 [7] | GI50 [8] | GI50 [9] | GI50 [10] | GI50 [11] | GI50 [12] | GI50 [13] | GI50 [14] | GI50 [15] | GI50 [16] | GI50 [17] | GI50 [18] | GI50 [19] | GI50 [20] |
| --- | --- | --- | --- | --- | --- | --- | --- | --- | --- | --- | --- | --- | --- | --- | --- | --- | --- | --- | --- | --- |
| Cc1n[n+]([O-])c(C)cc1[N+](=O)[O-] | 14 µM (inactive) | 22 µM (inactive) | 26.9 µM (inactive) | 12.5 µM (inactive) | 27.9 µM (inactive) | 18 µM (inactive) | 23.8 µM (inactive) | 46 µM (inactive) | 21.7 µM (inactive) | 20.6 µM (inactive) | 15.6 µM (inactive) | 22.4 µM (inactive) | 0.552 µM (active) | 16.6 µM (inactive) | 16.1 µM (inactive) | 15.7 µM (inactive) | 1.36 µM (inactive) | 18.2 µM (inactive) | 13.5 µM (inactive) | – |
| O=C(CC(=O)CC(O)(C(F)(F)F)C(F)(F)F)CC(O)(C(F)(F)F)C(F)(F)F | > 10 µM (inactive) | > 10 µM (inactive) | > 10 µM (inactive) | – | > 10 µM (inactive) | > 10 µM (inactive) | – | > 10 µM (inactive) | > 10 µM (inactive) | > 10 µM (inactive) | > 10 µM (inactive) | > 10 µM (inactive) | > 10 µM (inactive) | > 10 µM (inactive) | > 10 µM (inactive) | > 10 µM (inactive) | > 10 µM (inactive) | > 10 µM (inactive) | > 10 µM (inactive) | > 10 µM (inactive) |
| COc1cc2c(cc1OC)C1Cc3ccccc3CN1CCC2 (stereo unspecified) | > 100 µM (inactive) | > 100 µM (inactive) | 90.6 µM (inactive) | > 100 µM (inactive) | > 100 µM (inactive) | > 100 µM (inactive) | > 100 µM (inactive) | > 100 µM (inactive) | > 100 µM (inactive) | > 100 µM (inactive) | 47.6 µM (inactive) | > 100 µM (inactive) | – | > 100 µM (inactive) | 91.6 µM (inactive) | 93.5 µM (inactive) | 46.9 µM (inactive) | > 100 µM (inactive) | > 100 µM (inactive) | – |
| O=c1n(CCO)nc2n1CCCN2 | > 100 µM (inactive) | > 100 µM (inactive) | > 100 µM (inactive) | > 100 µM (inactive) | > 100 µM (inactive) | > 100 µM (inactive) | > 100 µM (inactive) | > 100 µM (inactive) | > 100 µM (inactive) | – | > 100 µM (inactive) | > 100 µM (inactive) | > 100 µM (inactive) | > 100 µM (inactive) | > 100 µM (inactive) | > 100 µM (inactive) | > 100 µM (inactive) | > 100 µM (inactive) | > 100 µM (inactive) | > 100 µM (inactive) |
| CC(C)(C)c1ccc(-c2nc3ccccc3c(=O)o2)cc1 | 33.3 µM (inactive) | 27.9 µM (inactive) | – | 54.8 µM (inactive) | 74.6 µM (inactive) | 42.5 µM (inactive) | 38.4 µM (inactive) | 53.6 µM (inactive) | 59.7 µM (inactive) | 55.2 µM (inactive) | > 100 µM (inactive) | 40.6 µM (inactive) | 25.5 µM (inactive) | 33.7 µM (inactive) | 38.7 µM (inactive) | 42.3 µM (inactive) | 19.3 µM (inactive) | – | 30.6 µM (inactive) | 23.1 µM (inactive) |
| C/C(O)=C/C(=O)c1[nH]c(C(=O)O)cc1C1CCN(Cc2ccccc2)C1=O (stereo unspecified) | 15.8 µM (inactive) | 26.9 µM (inactive) | – | 13.2 µM (inactive) | 21 µM (inactive) | 23.2 µM (inactive) | 32.7 µM (inactive) | 20 µM (inactive) | 18.3 µM (inactive) | 12 µM (inactive) | 27.3 µM (inactive) | 34.2 µM (inactive) | 20.7 µM (inactive) | 28.6 µM (inactive) | 24.3 µM (inactive) | 15.3 µM (inactive) | – | 33.2 µM (inactive) | 18 µM (inactive) | – |
| CC(C)(C)NCc1cc(C(C)(C)C)cc(-c2ccc(Cl)cc2)c1O | 12.5 µM (inactive) | 16 µM (inactive) | – | 14.7 µM (inactive) | 13.9 µM (inactive) | 13.8 µM (inactive) | – | 12.6 µM (inactive) | 11.7 µM (inactive) | 14.6 µM (inactive) | 12.6 µM (inactive) | 11.9 µM (inactive) | 9.53 µM (inactive) | 13.8 µM (inactive) | 13.2 µM (inactive) | 15 µM (inactive) | – | 11.2 µM (inactive) | 10.7 µM (inactive) | 5.33 µM (inactive) |
| Cn1cnc([N+](=O)[O-])c1[Se]c1ncnc2nc[nH]c12 | 22.1 µM (inactive) | 27.5 µM (inactive) | 10.5 µM (inactive) | – | 10.4 µM (inactive) | 3.79 µM (inactive) | 20.6 µM (inactive) | 7.46 µM (inactive) | 19.1 µM (inactive) | 2.07 µM (inactive) | 2 µM (inactive) | 4.6 µM (inactive) | 5.01 µM (inactive) | 17.1 µM (inactive) | 2.34 µM (inactive) | 5.47 µM (inactive) | 9.51 µM (inactive) | 5 µM (inactive) | 15.1 µM (inactive) | – |
| CC(=O)OC1=CC2=CC[C@H]3[C@@H]4CCC(=O)[C@@]4(C)CC(=O)[C@]3(S)[C@@]2(C)CC1 | 25.2 µM (inactive) | 49.4 µM (inactive) | – | 31.6 µM (inactive) | 27.8 µM (inactive) | 55 µM (inactive) | 32.9 µM (inactive) | 26.7 µM (inactive) | 62.5 µM (inactive) | 75.7 µM (inactive) | 30.7 µM (inactive) | 29.6 µM (inactive) | 20.9 µM (inactive) | 34.2 µM (inactive) | 21.7 µM (inactive) | 36.9 µM (inactive) | 29 µM (inactive) | 26 µM (inactive) | 32.4 µM (inactive) | – |
| Cc1cc(S(=O)(=O)Nc2nc(N)n[nH]2)c(SCC(=O)O)cc1Cl | > 10 µM (inactive) | > 10 µM (inactive) | > 10 µM (inactive) | > 10 µM (inactive) | > 10 µM (inactive) | > 10 µM (inactive) | > 10 µM (inactive) | > 10 µM (inactive) | > 10 µM (inactive) | > 10 µM (inactive) | – | > 10 µM (inactive) | > 10 µM (inactive) | > 10 µM (inactive) | > 10 µM (inactive) | > 10 µM (inactive) | > 10 µM (inactive) | – | > 10 µM (inactive) | > 10 µM (inactive) |
| CC1=CC2CC(C)=C(CC[C@]3(C)CC[C@H]([C@@H](C)C(=O)O)OO3)C(C)(C)C2CC1 (stereo partly specified) | 0.2 µM (active) | 0.45 µM (active) | 1.85 µM (inactive) | 0.292 µM (active) | 1.45 µM (inactive) | 1.57 µM (inactive) | – | 1.62 µM (inactive) | – | – | – | 0.356 µM (active) | 0.304 µM (active) | 1.3 µM (inactive) | 0.457 µM (active) | 1.31 µM (inactive) | 0.182 µM (active) | – | 0.403 µM (active) | 0.0863 µM (active) |
| O=C(NCc1ccccc1)c1cnc(Cl)cn1 | > 100 µM (inactive) | > 100 µM (inactive) | > 100 µM (inactive) | 17.3 µM (inactive) | > 100 µM (inactive) | > 100 µM (inactive) | – | > 100 µM (inactive) | > 100 µM (inactive) | 16.6 µM (inactive) | 62.7 µM (inactive) | 48.2 µM (inactive) | 44.2 µM (inactive) | 20.1 µM (inactive) | 79.8 µM (inactive) | 60.8 µM (inactive) | 23.1 µM (inactive) | 85.5 µM (inactive) | > 100 µM (inactive) | > 100 µM (inactive) |
| Nc1ccc2ncc(NCc3ccc(F)cc3)nc2c1 | 74.6 µM (inactive) | > 100 µM (inactive) | 40.9 µM (inactive) | > 100 µM (inactive) | > 100 µM (inactive) | > 100 µM (inactive) | – | 48.2 µM (inactive) | – | – | – | > 100 µM (inactive) | 62.2 µM (inactive) | 64.9 µM (inactive) | > 100 µM (inactive) | > 100 µM (inactive) | > 100 µM (inactive) | – | > 100 µM (inactive) | 95.9 µM (inactive) |
| Nc1nc(-c2ccccc2)cc(-c2ccccc2O)n1 | 36.2 µM (inactive) | 34.6 µM (inactive) | 19 µM (inactive) | 40.7 µM (inactive) | 48.6 µM (inactive) | 57.1 µM (inactive) | – | 24 µM (inactive) | – | – | – | 45.2 µM (inactive) | 22.6 µM (inactive) | 27.2 µM (inactive) | 20.7 µM (inactive) | 81.1 µM (inactive) | 34 µM (inactive) | – | 43.3 µM (inactive) | 16.5 µM (inactive) |
| CC1(C)CC2C(=O)c3ccccc3NC2c2ccccc21 (stereo unspecified) | 3.12 µM (inactive) | 6.11 µM (inactive) | 11.9 µM (inactive) | 5.86 µM (inactive) | 3.94 µM (inactive) | 5.51 µM (inactive) | 3.6 µM (inactive) | 14.6 µM (inactive) | 3.6 µM (inactive) | 3.49 µM (inactive) | 0.326 µM (active) | 5.47 µM (inactive) | 2.54 µM (inactive) | 14.4 µM (inactive) | 2.99 µM (inactive) | 5.28 µM (inactive) | 4.34 µM (inactive) | – | 3.44 µM (inactive) | 2.11 µM (inactive) |
| O=C(c1ccccc1)C1C(c2ccccc2[N+](=O)[O-])N1C1CCCCC1 (stereo unspecified) | 9.2 µM (inactive) | 16.6 µM (inactive) | 17 µM (inactive) | 6.79 µM (inactive) | 1.99 µM (inactive) | > 42.3 µM (inactive) | 3.95 µM (inactive) | 9.2 µM (inactive) | 10.1 µM (inactive) | 6.05 µM (inactive) | 2.6 µM (inactive) | 6.01 µM (inactive) | 1.72 µM (inactive) | 1.94 µM (inactive) | 1.8 µM (inactive) | 9.42 µM (inactive) | – | 7.69 µM (inactive) | 7.26 µM (inactive) | – |
